From ChEMBL document CHEMBL1133782, “Solid-phase synthesis of cyclic alkoxyketones, inhibitors of the cysteine protease cathepsin K” (Bioorg Med Chem Lett, 2001)

These compounds were tested against T1, Cathepsin K (Homo sapiens, UniProt P43235) (assay: Inhibitory activity against human cysteine protease, cathepsin K.).
T1 sequence (P43235 whole entry): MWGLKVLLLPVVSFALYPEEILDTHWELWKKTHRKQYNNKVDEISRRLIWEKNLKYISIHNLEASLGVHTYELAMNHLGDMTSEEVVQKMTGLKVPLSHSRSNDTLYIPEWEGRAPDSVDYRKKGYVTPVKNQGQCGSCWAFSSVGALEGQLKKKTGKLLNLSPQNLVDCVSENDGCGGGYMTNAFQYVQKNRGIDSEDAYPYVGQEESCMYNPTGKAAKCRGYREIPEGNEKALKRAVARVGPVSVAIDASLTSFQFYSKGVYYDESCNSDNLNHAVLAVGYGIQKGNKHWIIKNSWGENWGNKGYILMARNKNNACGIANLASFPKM

**Q.** How did the Ki turn out when COCC(=O)[C@H](C)NC(=O)[C@H](CC(C)C)NC(=O)OCc1ccccc1 was run?
**A.** Its Ki is 60 nM.

**Q.** Which Ki does the source give for CC(C)C[C@H](NC(=O)c1ccc(S(C)(=O)=O)cc1)C(=O)NC1COCC1=O (some centres undefined) here?
**A.** Its Ki is 710 nM.

**Q.** Which Ki does the source give for CC(O)[C@H](NC(=O)c1cc2ccccc2s1)C(=O)NC1COCC1=O (some centres undefined) here?
**A.** Its Ki is > 10000 nM.

**Q.** With CC(C)C[C@H](NC(=O)c1ccc2ccccc2c1)C(=O)NC1COCC1=O (some centres undefined) as the compound, how does the Ki read?
**A.** Its Ki is 61 nM.

**Q.** CC(=O)N[C@@H](CC(C)C)C(=O)NC1COCC1=O (some centres undefined) was tested. Which Ki did it give?
**A.** Its Ki is > 1000 nM.

**Q.** With CC(C)C[C@H](NC(=O)c1cccs1)C(=O)NC1COCC1=O (some centres undefined) as the compound, how does the Ki read?
**A.** Its Ki is 640 nM.

**Q.** How did the Ki turn out when C[C@H](NC(=O)c1cc2ccccc2s1)C(=O)NC1COCC1=O (some centres undefined) was run?
**A.** Its Ki is > 10000 nM.

**Q.** How did the Ki turn out when CC(C)C[C@H](NC(=O)c1ccc(F)c(F)c1)C(=O)NC1COCC1=O (some centres undefined) was run?
**A.** Its Ki is 820 nM.

**Q.** Which Ki does the source give for CC(C)C[C@H](NC(=O)c1ccc(C(C)C)cc1)C(=O)NC1COCC1=O (some centres undefined) here?
**A.** Its Ki is 64 nM.

**Q.** How did the Ki turn out when CC(C)C[C@H](NC(=O)c1cccc([N+](=O)[O-])c1)C(=O)NC1COCC1=O (some centres undefined) was run?
**A.** The Ki was > 1000 nM.

**Q.** Which Ki does the source give for CC(C)C[C@H](NC(=O)c1cc2ccccc2s1)C(=O)NC1COCC1=O (some centres undefined) here?
**A.** The Ki was 11 nM.

**Q.** With CC(C)C[C@H](NC(=O)c1ccccn1)C(=O)NC1COCC1=O (some centres undefined) as the compound, how does the Ki read?
**A.** Its Ki is 420 nM.

**Q.** CC(C)C[C@H](NC(=O)c1cc2ccccc2o1)C(=O)NC1COCC1=O (some centres undefined) was tested. Which Ki did it give?
**A.** Its Ki is 53 nM.

**Q.** Which Ki does the source give for CC(C)C[C@H](NC(=O)OCc1ccccc1)C(=O)NC1COCC1=O (some centres undefined) here?
**A.** The Ki was 140 nM.

**Q.** How did the Ki turn out when O=C(N[C@@H](CC1CCCCC1)C(=O)NC1COCC1=O)c1cc2ccccc2s1 (some centres undefined) was run?
**A.** The Ki was > 10000 nM.

**Q.** How did the Ki turn out when CC(C)C[C@H](NC(=O)c1ccc2cc[nH]c2c1)C(=O)NC1COCC1=O (some centres undefined) was run?
**A.** The Ki was 38 nM.

**Q.** With CC(C)[C@H](NC(=O)c1cc2ccccc2s1)C(=O)NC1COCC1=O (some centres undefined) as the compound, how does the Ki read?
**A.** The Ki was > 10000 nM.

**Q.** For O=C(O)CC[C@H](NC(=O)c1cc2ccccc2s1)C(=O)NC1COCC1=O (some centres undefined), which Ki is on record?
**A.** Its Ki is > 10000 nM.

**Q.** Which Ki does the source give for O=C(N[C@@H](Cn1ccnc1)C(=O)NC1COCC1=O)c1cc2ccccc2s1 (some centres undefined) here?
**A.** The Ki was > 10000 nM.

**Q.** With NC(=O)CC[C@H](NC(=O)c1cc2ccccc2s1)C(=O)NC1COCC1=O (some centres undefined) as the compound, how does the Ki read?
**A.** The Ki was > 10000 nM.

**Q.** How did the Ki turn out when CC(C)C[C@H](NC(=O)c1ccc(C(C)(C)C)cc1)C(=O)NC1COCC1=O (some centres undefined) was run?
**A.** Its Ki is 15 nM.

**Q.** For CC(C)C[C@H](NC(=O)c1ccc2ccccc2n1)C(=O)NC1COCC1=O (some centres undefined), which Ki is on record?
**A.** The Ki was 44 nM.

**Q.** Which Ki does the source give for CCC[C@H](NC(=O)c1cc2ccccc2s1)C(=O)NC1COCC1=O (some centres undefined) here?
**A.** The Ki was 190 nM.

**Q.** With CC(C)C[C@H](NC(=O)c1ccc(-c2ccccc2)cc1)C(=O)NC1COCC1=O (some centres undefined) as the compound, how does the Ki read?
**A.** Its Ki is 19 nM.

**Q.** CC(C)C[C@H](NC(=O)C1CCCCC1)C(=O)NC1COCC1=O (some centres undefined) was tested. Which Ki did it give?
**A.** The Ki was > 1000 nM.

**Q.** O=C(N[C@@H](Cc1ccccc1)C(=O)NC1COCC1=O)c1cc2ccccc2s1 (some centres undefined) was tested. Which Ki did it give?
**A.** Its Ki is > 10000 nM.

**Q.** O=C(CNC(=O)c1cc2ccccc2s1)NC1COCC1=O (centres undefined) was tested. Which Ki did it give?
**A.** Its Ki is > 10000 nM.

**Q.** How did the Ki turn out when NCCCC[C@H](NC(=O)c1cc2ccccc2s1)C(=O)NC1COCC1=O (some centres undefined) was run?
**A.** The Ki was > 10000 nM.

**Q.** Which Ki does the source give for CC(C)C[C@H](NC(=O)c1ccccc1)C(=O)NC1COCC1=O (some centres undefined) here?
**A.** Its Ki is 180 nM.
